In brackets after ≈: the same amount, converted by molar mass. Read-outs that look alike come from different tables or passages of the source.
Columns and labels:
MRP = biological target: T1, MRP (Homo sapiens, UniProt P33527); assay: Inhibition of MRP-mediated calcein-AM extrusion (calcein accumulation) in S1MRP and HL60 ADR cells; format: cell-based
T1 construct: endogenous in cells

MDR1 [1] = biological target: T2, MDR1 (Homo sapiens, UniProt P08183); assay: Inhibition of MDR1-mediated calcein-AM extrusion (calcein accumulation) in 3T3 MDR and K562 MDR cells
P388-C cells [2] = assay: Cytotoxicity assay, adriamycin resistance; format: cell-based, murine; details: Mus musculus; P388-C control cell line
Description: (§1) Elapsed time is shown on the abscissa and fluorescence intensity in arbitrary units is shown on the ordinate.

P388-MDRa cells = assay: Cytotoxicity assay, adriamycin resistance; format: cell-based, murine; details: Mus musculus; P388-MDRa cell line
Description: as §1

P388-MDRb cells = assay: Cytotoxicity assay, adriamycin resistance; format: cell-based, murine; details: Mus musculus; P388-MDRb cell line
Description: as §1

K562-C cells = assay: Cytotoxicity assay, 3 days culture with adriamycin; format: cell-based; details: Homo sapiens, 72 h, K562-C cell line, read-out: Resistance to Adriamycin (IC50, ng/ml)
Protocol: (§2) Cells were cultured for 3 days under standard conditions in the presence of 0.1-100 ng/ml adriamycin. The number of cells in the different cell cultures is given as the percentage of the number of cells counted in the culture not treated with the drug. As it can well be seen on FIG. 5, the really expressed drug resistance is in much better accordance with the results obtained by the method of the invention based on the measurement of calcein accumulation than with those obtained by the traditional immunological measurement of MDR expression.
(§3) Cells were cultured for 3 days under standard conditions in the presence of 0.1-100 ng/ml adriamycin. The number of cells in the different cell cultures is given as the percentage of the number of cells counted in the culture not treated with the drug.

K562-MDR cells = assay: Cytotoxicity assay, 3 days culture with adriamycin; format: cell-based; details: Homo sapiens, 72 h, K562-MDR cell line, read-out: Resistance to Adriamycin (IC50, ng/ml)
Protocol: as §2, §3

K562-mMDR cells = assay: Cytotoxicity assay, 3 days culture with adriamycin; format: cell-based; details: Homo sapiens, 72 h, K562-mMDR cell line (inactive mutant MDR protein), read-out: Resistance to Adriamycin (IC50, ng/ml)
Protocol: as §2, §3

MDR dependent ATPase = MDR dependent ATPase (Homo sapiens, UniProt P08183); details: cited from earlier work
P388-C cells [3] = assay: Calcein accumulation by fluorescent spectrophotometry in control cells; format: cell-based, murine; details: 100 μmol/l verapamil
Description: as §1

KB3 cells = assay: Calcein accumulation by flow cytometry in control cells; details: 100 μmol/l verapamil pretreatment 5 min, control cell line KB3
Protocol: In the experiments shown in FIG. 2 a drug sensitive (control, cell line KB3) and three increasingly multi-drug resistant (cell lines KB-V1a-c) human epidermoid carcinoma cell lines were examined.
As all the specimens were incubated for the same time (10 min) with calcein-AM, the measure of the accumulation of calcein detected exactly after 10 minutes can be taken as the rate of calcein accumulation.

MDR1 [4] = biological target: T2, MDR1
[5] = inhibition of MRP-mediated calcein-AM extrusion, S1MRP and HL60 ADR cells, range of at least 3 independent experiments with each cell line, read-out: IC50 MRP
[6] = read-out: IC50 MDR1, inhibition of MDR1-mediated calcein-AM extrusion, 3T3 MDR and K562 MDR cells, range of at least 3 independent experiments, > = 50% inhibition not achieved (a solubility problem, b esterase inhibition)

T1 sequence (P33527 whole entry): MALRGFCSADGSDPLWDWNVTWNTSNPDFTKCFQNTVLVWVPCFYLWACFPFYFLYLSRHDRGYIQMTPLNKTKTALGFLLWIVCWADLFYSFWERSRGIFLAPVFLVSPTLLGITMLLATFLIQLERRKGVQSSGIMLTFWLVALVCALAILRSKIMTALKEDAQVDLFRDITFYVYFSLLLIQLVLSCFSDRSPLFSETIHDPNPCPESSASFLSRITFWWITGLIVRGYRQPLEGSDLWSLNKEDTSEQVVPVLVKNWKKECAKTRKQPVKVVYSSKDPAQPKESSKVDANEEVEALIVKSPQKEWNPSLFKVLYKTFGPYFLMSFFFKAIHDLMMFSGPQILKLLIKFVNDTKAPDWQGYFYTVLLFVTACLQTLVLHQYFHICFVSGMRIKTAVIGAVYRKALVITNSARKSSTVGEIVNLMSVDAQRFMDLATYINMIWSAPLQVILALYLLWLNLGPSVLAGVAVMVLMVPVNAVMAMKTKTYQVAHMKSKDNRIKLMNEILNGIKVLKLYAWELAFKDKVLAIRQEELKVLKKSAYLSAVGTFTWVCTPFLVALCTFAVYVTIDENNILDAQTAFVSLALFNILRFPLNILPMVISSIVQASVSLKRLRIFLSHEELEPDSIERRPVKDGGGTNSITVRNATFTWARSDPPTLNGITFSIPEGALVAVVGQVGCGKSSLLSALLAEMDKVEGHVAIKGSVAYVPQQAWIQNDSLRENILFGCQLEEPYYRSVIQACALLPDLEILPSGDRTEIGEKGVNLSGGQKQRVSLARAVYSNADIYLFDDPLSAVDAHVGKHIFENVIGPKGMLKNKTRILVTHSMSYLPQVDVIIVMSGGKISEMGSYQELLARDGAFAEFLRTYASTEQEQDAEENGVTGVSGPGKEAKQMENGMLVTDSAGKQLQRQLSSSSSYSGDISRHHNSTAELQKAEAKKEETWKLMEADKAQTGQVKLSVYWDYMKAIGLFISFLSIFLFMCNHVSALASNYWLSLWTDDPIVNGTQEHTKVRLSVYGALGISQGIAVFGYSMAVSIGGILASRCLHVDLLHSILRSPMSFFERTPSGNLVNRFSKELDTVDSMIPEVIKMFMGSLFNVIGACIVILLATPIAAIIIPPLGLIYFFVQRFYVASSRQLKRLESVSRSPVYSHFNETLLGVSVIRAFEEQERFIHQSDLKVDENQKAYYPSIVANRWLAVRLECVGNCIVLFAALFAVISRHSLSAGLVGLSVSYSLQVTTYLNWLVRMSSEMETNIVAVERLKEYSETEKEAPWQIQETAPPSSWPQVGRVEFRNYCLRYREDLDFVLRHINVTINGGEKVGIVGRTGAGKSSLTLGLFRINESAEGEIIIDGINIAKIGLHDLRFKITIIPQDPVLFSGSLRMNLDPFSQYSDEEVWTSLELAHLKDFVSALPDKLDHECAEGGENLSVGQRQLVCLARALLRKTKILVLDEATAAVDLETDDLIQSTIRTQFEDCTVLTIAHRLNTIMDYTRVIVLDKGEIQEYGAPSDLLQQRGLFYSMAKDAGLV
T2 sequence (P08183 whole entry): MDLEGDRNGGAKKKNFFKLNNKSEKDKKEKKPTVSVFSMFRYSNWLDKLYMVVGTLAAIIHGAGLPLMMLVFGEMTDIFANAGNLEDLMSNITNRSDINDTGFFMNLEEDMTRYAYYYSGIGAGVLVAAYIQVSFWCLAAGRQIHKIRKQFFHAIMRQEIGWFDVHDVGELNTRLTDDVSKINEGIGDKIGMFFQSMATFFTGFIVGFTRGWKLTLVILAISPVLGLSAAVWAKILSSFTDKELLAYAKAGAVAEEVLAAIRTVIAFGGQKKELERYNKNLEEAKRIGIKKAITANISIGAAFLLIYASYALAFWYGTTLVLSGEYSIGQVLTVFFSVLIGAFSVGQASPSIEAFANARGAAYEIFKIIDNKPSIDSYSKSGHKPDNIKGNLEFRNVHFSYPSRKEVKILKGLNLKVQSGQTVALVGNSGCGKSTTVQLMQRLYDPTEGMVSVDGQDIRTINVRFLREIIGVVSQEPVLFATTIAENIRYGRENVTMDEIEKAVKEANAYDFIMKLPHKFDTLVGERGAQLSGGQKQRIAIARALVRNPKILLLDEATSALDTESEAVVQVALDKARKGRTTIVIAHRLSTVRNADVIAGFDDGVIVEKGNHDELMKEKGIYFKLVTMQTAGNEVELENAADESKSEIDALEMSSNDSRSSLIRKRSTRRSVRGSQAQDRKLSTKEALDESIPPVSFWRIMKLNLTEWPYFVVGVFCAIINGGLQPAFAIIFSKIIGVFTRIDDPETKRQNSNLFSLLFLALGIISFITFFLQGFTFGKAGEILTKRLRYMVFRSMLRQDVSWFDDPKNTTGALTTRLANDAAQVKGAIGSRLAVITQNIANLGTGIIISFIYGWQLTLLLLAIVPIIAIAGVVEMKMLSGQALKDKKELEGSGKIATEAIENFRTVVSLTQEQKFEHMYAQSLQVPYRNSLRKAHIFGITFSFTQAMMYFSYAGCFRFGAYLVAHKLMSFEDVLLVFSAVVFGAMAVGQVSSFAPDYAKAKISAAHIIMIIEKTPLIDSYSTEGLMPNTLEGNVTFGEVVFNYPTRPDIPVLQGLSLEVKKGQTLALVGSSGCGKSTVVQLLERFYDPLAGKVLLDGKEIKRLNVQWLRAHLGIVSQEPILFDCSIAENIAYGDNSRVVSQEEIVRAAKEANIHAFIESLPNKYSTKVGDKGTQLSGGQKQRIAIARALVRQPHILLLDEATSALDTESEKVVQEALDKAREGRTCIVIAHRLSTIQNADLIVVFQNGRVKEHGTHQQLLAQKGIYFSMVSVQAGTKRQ
Sequence of MDR dependent ATPase (P08183 whole entry): as above

C[CH2][Hg][S]c1ccccc1C(=O)[O-].[Na+] [Merthiolate]
IC50 (MRP; [5]): 10 to 20 µM
IC50 (MDR1 [1]; [6]): > 200 µM

Clc1ccc(COC(Cn2ccnc2)c2ccc(Cl)cc2Cl)cc1 (centres unmarked) [Econazole]
IC50 (MRP; [5]): 3 to 10 µM
IC50 (MDR1 [1]): 1 to 3 µM

CCCN(CCC)S(=O)(=O)c1ccc(C(=O)O)cc1 [Probenacid, Probenecid]
IC50 (MRP; [5]): 500 to 800 µM
IC50 (MDR1 [1]): > 2000 µM

C=C(CC)C(=O)c1ccc(OCC(=O)O)c(Cl)c1Cl [Ethacrynic acid]
IC50 (MRP; [5]): 20 to 30 µM
IC50 (MDR1 [1]): > 800 µM

COc1cccc2c1C(=O)c1c(O)c3c(c(O)c1C2=O)C[C@@](O)(C(=O)CO)C[C@@H]3O[C@H]1C[C@H](N)[C@H](O)[C@H](C)O1 [Adriamycin]
IC50 (P388-C cells [2]): 0.5 ng/mL (≈ 0.92 nM)
IC50 (P388-MDRa cells): 4 ng/mL (≈ 7.36 nM)
IC50 (P388-MDRb cells): 9 ng/mL (≈ 16.6 nM)
IC50 (K562-C cells): 0.7 ng/mL (≈ 1.29 nM)
IC50 (K562-MDR cells): 3.1 ng/mL (≈ 5.7 nM)
IC50 (K562-mMDR cells): 0.35 ng/mL (≈ 0.644 nM)

O=[N+]([O-])c1ccc(O)c([N+](=O)[O-])c1 [2,4-DNP]
IC50 (MRP; [5]): 30 to 50 µM
IC50 (MDR1 [1]; [6]): > 200 µM

calcein-acetoxy-methylester [calcein-AM]
Ka, activation of the MDR dependent ATPase (MDR dependent ATPase): ≤ 1 µmol/L

O=C(O)CCCc1ccc(N(CCCl)CCCl)cc1 [Chlorambucil]
IC50 (MRP): 30 to 50 µM
IC50 (MDR1 [1]): > 500 µM

CCCCC[C@H](O)/C=C/[C@H]1C=CC(=O)[C@@H]1CCCCCCC(=O)O [Prostaglandin A1]
IC50 (MRP; [5]): 3 to 5 µM
IC50 (MDR1 [1]; [6]): > 100 µM

C=C[C@H]1C[N@@]2CC[C@H]1C[C@H]2[C@H](O)c1ccnc2ccc(OC)cc12 [Quinine]
IC50 (MRP; [5]): 50 to 100 µM

O=c1c(-c2ccc(O)cc2)coc2cc(O)cc(O)c12 [Genistein]
IC50 (MRP; [5]): 150 to 200 µM
IC50 (MDR1 [1]): > 1000 µM

CCN1C(=O)C=CC1=O [NEM, N-ethylmaleimide]
IC50 (MRP; [5]): 0.2 to 0.5 µM
IC50 (MDR1 [1]): > 50 µM

COc1ccc2c(c1)c(CC(=O)O)c(C)n2C(=O)c1ccc(Cl)cc1 [Indomethacin]
IC50 (MRP; [5]): 10 to 20 µM
IC50 (MDR1 [1]): > 800 µM

COc1ccc(CCN(C)CCCC(C#N)(c2ccc(OC)c(OC)c2)C(C)C)cc1OC (centres unmarked) [Verapamil]
effect on rate of calcein accumulation (P388-C cells [3]): not influenced
effect on calcein accumulation (KB3 cells): no detectable effect

CC/C(=C(\c1ccccc1)c1ccc(OCCN(C)C)cc1)c1ccccc1 [Tamoxifen]
IC50 (MRP; [5]): 3 to 6 µM

CCc1oc2ccccc2c1C(=O)c1cc(Br)c(O)c(Br)c1 [Benzbromarone]
IC50 (MDR1 [1]): > 500 µM

CC[C@]1(O)C[C@@H]2CN(CCc3c([nH]c4ccccc34)[C@@](C(=O)OC)(c3cc4c(cc3OC)N(C)[C@H]3[C@@](O)(C(=O)OC)[C@H](OC(C)=O)[C@]5(CC)C=CCN6CC[C@]43[C@@H]65)C2)C1 [Vinblastine]
IC50 (MRP; [5]): 2 to 5 µM

O=C1OC(c2ccc(O)c(S(=O)(=O)O)c2)(c2ccc(O)c(S(=O)(=O)O)c2)c2c(Br)c(Br)c(Br)c(Br)c21 [Bromosulfophthalein]
IC50 (MRP; [5]): 100 to 150 µM
IC50 (MDR1 [1]; [6]): > 1000 µM

O=C1C(CC[S+]([O-])c2ccccc2)C(=O)N(c2ccccc2)N1c1ccccc1 (centres unmarked) [Sulfinpyrazone]
IC50 (MRP; [5]): 300 to 500 µM
IC50 (MDR1 [1]): > 2000 µM

N#CC(C#N)=NNc1cccc(Cl)c1 [CCCP]
IC50 (MRP; [5]): 10 to 30 µM
IC50 (MDR1 [4]): > 200 µM

CC[C@H]1/C=C/C=C/C[C@@H](C)[C@H](O)[C@@](C)(O)C(=O)[C@@H](C)[C@H](O)[C@@H](C)C(=O)[C@@H](C)[C@H](O)[C@@H](C)/C=C/C(=O)O[C@@H]2[C@H](C)[C@H](CC1)O[C@]1(CC[C@H](C)[C@H](C[C@@H](C)O)O1)[C@H]2C [Oligomycin]
IC50 (MRP; [5]): 1 to 2 µM
IC50 (MDR1 [1]): 1 to 2 µM

Source: patent US6391656B2, “Assay and reagent kit for evaluation of multi-drug resistance in cells” (SOLVO Biotechnology, priority 1994, dated 2002)
